Experimental data taken from EP4729518A1, “CRYSTAL FORM OF METHIONINE ADENOSYLTRANSFERASE 2A HETEROCYCLIC INHIBITOR, PREPARATION METHOD THEREFOR, AND USE THEREOF” (Nanjing Chia Tai Tianqing Pharmaceutical Co., Ltd., priority 2023, dated 2024).
Each block holds one molecule with its values, some of them ahead of it.

Tests used:
[1] = Heating experiment via DSC followed by XRD; assay type: physicochemical
Source text: The heated samples were then collected and subjected to XRD analysis. Table 27: Summary of heating test results for various crystal forms

[2] = Solid state stability of crystal forms (XRD and HPLC); assay type: physicochemical
Experimental: Samples of the crystal forms B, H, and L were placed under the conditions of 25 °C/60% RH and 40 °C/75% RH for 17 days, and then the physicochemical stability of the samples was tested using XRD and HPLC. Table 24: Summary of solid state stability evaluation of crystal forms

SMILES: Cn1cc2cc(-c3nn4ccc(C5CC5)nc4c(-c4ccc(OC(F)F)cc4)c3=O)ccc2n1 [Crystal form N, 2-cyclopropyl-9-[4-(difluoromethoxy)phenyl]-7-(2-methyl-2H-indazol-5-yl)-8H-pyrimido[1,2-b]pyridazin-8-one]
- After heating (crystal form) ([1]; Heating temperature 100 °C): Crystal form A

SMILES: Cn1cc2cc(-c3nn4ccc(C5CC5)nc4c(-c4ccc(OC(F)F)cc4)c3=O)ccc2n1 [Crystal form M, 2-cyclopropyl-9-[4-(difluoromethoxy)phenyl]-7-(2-methyl-2H-indazol-5-yl)-8H-pyrimido[1,2-b]pyridazin-8-one]
- After heating (crystal form) ([1]; Heating temperature 150 °C): Crystal form A

SMILES: Cn1cc2cc(-c3nn4ccc(C5CC5)nc4c(-c4ccc(OC(F)F)cc4)c3=O)ccc2n1 [Crystal form A, 2-cyclopropyl-9-[4-(difluoromethoxy)phenyl]-7-(2-methyl-2H-indazol-5-yl)-8H-pyrimido[1,2-b]pyridazin-8-one]
- stability on heating ([1]; after heating (>100 °C)): high-temperature stable crystal form

SMILES: Cn1cc2cc(-c3nn4ccc(C5CC5)nc4c(-c4ccc(OC(F)F)cc4)c3=O)ccc2n1 [Crystal form Q, 2-cyclopropyl-9-[4-(difluoromethoxy)phenyl]-7-(2-methyl-2H-indazol-5-yl)-8H-pyrimido[1,2-b]pyridazin-8-one]
- After heating (crystal form) ([1]; Heating temperature 130 °C): Crystal form A

SMILES: Cn1cc2cc(-c3nn4ccc(C5CC5)nc4c(-c4ccc(OC(F)F)cc4)c3=O)ccc2n1 [Crystal form H, 2-cyclopropyl-9-[4-(difluoromethoxy)phenyl]-7-(2-methyl-2H-indazol-5-yl)-8H-pyrimido[1,2-b]pyridazin-8-one]
- After heating (crystal form) ([1]; Heating temperature 250 °C): Crystal form A
- Crystal form change ([2]; 0 day): No
- Purity ([2]; 0 day): 98.62%
- change in crystal form or purity ([2]; 25 °C/60% RH for 17 days): no change in purity, but had a decrease in crystallinity
- Crystal form change ([2]; 25 °C/60% RH/17 days): No change in crystal form was observed, but the crystallinity decreased
- Purity ([2]; 25 °C/60% RH/17 days): 98.59%
- change in crystal form or purity ([2]; 40 °C/75% RH for 17 days): no change in either crystal form or purity
- Crystal form change ([2]; 40 °C/75% RH/17 days): No
- Purity ([2]; 40 °C/75% RH/17 days): 98.59%

SMILES: Cn1cc2cc(-c3nn4ccc(C5CC5)nc4c(-c4ccc(OC(F)F)cc4)c3=O)ccc2n1 [Crystal form I, 2-cyclopropyl-9-[4-(difluoromethoxy)phenyl]-7-(2-methyl-2H-indazol-5-yl)-8H-pyrimido[1,2-b]pyridazin-8-one]
- After heating (crystal form) ([1]; Heating temperature 150 °C): Crystal form A

More lines, main results first:

- After heating (crystal form) ([1]; Heating temperature 150 °C): Crystal form A
SMILES: Cn1cc2cc(-c3nn4ccc(C5CC5)nc4c(-c4ccc(OC(F)F)cc4)c3=O)ccc2n1 [Crystal form O, 2-cyclopropyl-9-[4-(difluoromethoxy)phenyl]-7-(2-methyl-2H-indazol-5-yl)-8H-pyrimido[1,2-b]pyridazin-8-one]

- After heating (crystal form) ([1]; Heating temperature 250 °C): Crystal form A
- Crystal form change ([2]; 0 day): No
- Purity ([2]; 0 day): 98.69%
- Crystal form change ([2]; 25 °C/60% RH/17 days): No
- Purity ([2]; 25 °C/60% RH/17 days): 98.69%
- Crystal form change ([2]; 40 °C/75% RH/17 days): No
- Purity ([2]; 40 °C/75% RH/17 days): 98.68%
SMILES: Cn1cc2cc(-c3nn4ccc(C5CC5)nc4c(-c4ccc(OC(F)F)cc4)c3=O)ccc2n1 [Crystal form B, 2-cyclopropyl-9-[4-(difluoromethoxy)phenyl]-7-(2-methyl-2H-indazol-5-yl)-8H-pyrimido[1,2-b]pyridazin-8-one]
- change in crystal form or purity ([2]; 25 °C/60% RH for 17 days): no change in either crystal form or purity
- change in crystal form or purity ([2]; 40 °C/75% RH for 17 days): no change in either crystal form or purity

- After heating (crystal form) ([1]; Heating temperature 150 °C): Crystal form A
SMILES: Cn1cc2cc(-c3nn4ccc(C5CC5)nc4c(-c4ccc(OC(F)F)cc4)c3=O)ccc2n1 [Crystal form P, 2-cyclopropyl-9-[4-(difluoromethoxy)phenyl]-7-(2-methyl-2H-indazol-5-yl)-8H-pyrimido[1,2-b]pyridazin-8-one]

- After heating (crystal form) ([1]; Heating temperature 150 °C): Crystal forms A + H + L
SMILES: Cn1cc2cc(-c3nn4ccc(C5CC5)nc4c(-c4ccc(OC(F)F)cc4)c3=O)ccc2n1 [Crystal form D, 2-cyclopropyl-9-[4-(difluoromethoxy)phenyl]-7-(2-methyl-2H-indazol-5-yl)-8H-pyrimido[1,2-b]pyridazin-8-one]
